ChEMBL document CHEMBL1201862, “PubChem BioAssay data set” (2004)
Calls of active or inactive are those of the source.

Legend:
Leucine aminopeptidase = molecular target: T1, Leucine aminopeptidase (Plasmodium falciparum 3D7, UniProt Q8IL11); test: P. falciparum M17LAP inhibitors, primary screen, biochemical, fluorogenic H-Leu-NHMec substrate, 1536-well (AID 1619); type: functional
T1 sequence (Q8IL11 whole entry): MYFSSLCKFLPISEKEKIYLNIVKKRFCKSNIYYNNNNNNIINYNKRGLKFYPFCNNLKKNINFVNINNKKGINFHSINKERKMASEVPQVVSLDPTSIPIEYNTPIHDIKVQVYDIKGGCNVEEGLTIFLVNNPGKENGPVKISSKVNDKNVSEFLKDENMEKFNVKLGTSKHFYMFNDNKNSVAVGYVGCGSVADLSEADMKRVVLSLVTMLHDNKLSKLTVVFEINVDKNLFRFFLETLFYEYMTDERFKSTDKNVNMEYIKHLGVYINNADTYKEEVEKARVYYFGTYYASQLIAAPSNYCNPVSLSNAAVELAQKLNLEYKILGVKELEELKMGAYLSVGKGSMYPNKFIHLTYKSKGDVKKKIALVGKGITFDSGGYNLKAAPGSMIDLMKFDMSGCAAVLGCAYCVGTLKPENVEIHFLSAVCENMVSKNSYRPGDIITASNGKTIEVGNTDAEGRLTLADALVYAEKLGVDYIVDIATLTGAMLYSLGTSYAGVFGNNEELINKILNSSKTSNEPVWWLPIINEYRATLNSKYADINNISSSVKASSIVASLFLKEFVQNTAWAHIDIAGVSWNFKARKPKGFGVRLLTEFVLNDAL

[1] = molecular target: Dual specificity tyrosine-phosphorylation-regulated kinase 1A (Rattus norvegicus, UniProt Q63470); type: biochemical, Homo sapiens
HeLa = test: HeLa cell cytotoxicity, dose response, cytotoxicity control for MITF activator project, CellTiter-Glo luminescence, cherry-pick samples (AID 540259); type: functional, cell-based; settings: Homo sapiens
cells [2] = type: functional, cell-based
cells [3] = type: functional, cell-based; remark: listed apart in the source
[4] = HepG2 cell cytotoxicity, dose response, cytotoxicity control for non-replicating M. tuberculosis project (AID 489018); type: functional; settings: Mycobacterium tuberculosis
[5] = THP-1 cell cytotoxicity, dose response, cytotoxicity control for non-replicating M. tuberculosis project (AID 489025); type: functional
HT-1080 = test: cytotoxicity in HT1080 fibrosarcoma cells, cell-based, fluorescence readout (AID 620); type: functional; settings: Homo sapiens
[6] = molecular target: Luciferin 4-monooxygenase (Photinus pyralis, UniProt P08659); test: Counter Screen for Luciferase-based Assay Positives. [Related pubchem assays: 620, 618, 411 ]
Chain of Luciferin 4-monooxygenase (P08659 whole entry): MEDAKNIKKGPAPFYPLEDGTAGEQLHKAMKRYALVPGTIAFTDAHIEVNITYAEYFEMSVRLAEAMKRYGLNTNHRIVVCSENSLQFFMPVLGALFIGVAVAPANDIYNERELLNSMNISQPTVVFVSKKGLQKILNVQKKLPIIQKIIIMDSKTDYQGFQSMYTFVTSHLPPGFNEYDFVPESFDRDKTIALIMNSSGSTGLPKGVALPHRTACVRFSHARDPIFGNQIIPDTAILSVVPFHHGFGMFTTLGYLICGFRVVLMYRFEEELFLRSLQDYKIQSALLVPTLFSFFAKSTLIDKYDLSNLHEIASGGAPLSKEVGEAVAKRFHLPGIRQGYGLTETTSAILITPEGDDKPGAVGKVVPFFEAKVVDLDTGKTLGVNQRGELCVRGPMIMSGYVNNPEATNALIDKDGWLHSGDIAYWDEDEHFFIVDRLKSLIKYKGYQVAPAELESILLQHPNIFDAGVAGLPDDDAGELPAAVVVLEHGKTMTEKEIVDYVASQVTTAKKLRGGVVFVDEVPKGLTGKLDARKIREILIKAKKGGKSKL

[7] = molecular target: FAD-linked sulfhydryl oxidase ALR (Homo sapiens, UniProt P55789); test: inhibitors of human ALR sulfhydryl oxidase, dose response, biochemical, H2O2 detection, luminescence, cherry-pick (AID 493248)
Chain of FAD-linked sulfhydryl oxidase ALR (P55789 whole entry): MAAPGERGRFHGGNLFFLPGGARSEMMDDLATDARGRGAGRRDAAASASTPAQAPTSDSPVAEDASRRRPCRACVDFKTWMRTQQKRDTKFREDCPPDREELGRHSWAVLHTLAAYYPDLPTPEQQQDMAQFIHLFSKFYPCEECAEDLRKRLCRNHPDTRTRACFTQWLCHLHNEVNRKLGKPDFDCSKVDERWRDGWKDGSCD

H4 = test: Luminescence Cell-Based Dose Response HTS to Identify Activators of 5'UTR Stem-Loop Driven Prion Protein mRNA Translation in H4 Neuroglioblastoma Cells. [Related pubchem assays: 1829 (Project Summary), 1814 (Primary HTS)]; type: functional; settings: Homo sapiens
Estrogen receptor beta = Estrogen receptor beta (Homo sapiens, UniProt Q92731);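 note: recombinant ER-beta bound to coactivator SRC1 peptide in presence of estradiol agonist; inhibitors block coactivator peptide binding and lower the FRET signal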
Chain of Estrogen receptor beta (Q92731 whole entry): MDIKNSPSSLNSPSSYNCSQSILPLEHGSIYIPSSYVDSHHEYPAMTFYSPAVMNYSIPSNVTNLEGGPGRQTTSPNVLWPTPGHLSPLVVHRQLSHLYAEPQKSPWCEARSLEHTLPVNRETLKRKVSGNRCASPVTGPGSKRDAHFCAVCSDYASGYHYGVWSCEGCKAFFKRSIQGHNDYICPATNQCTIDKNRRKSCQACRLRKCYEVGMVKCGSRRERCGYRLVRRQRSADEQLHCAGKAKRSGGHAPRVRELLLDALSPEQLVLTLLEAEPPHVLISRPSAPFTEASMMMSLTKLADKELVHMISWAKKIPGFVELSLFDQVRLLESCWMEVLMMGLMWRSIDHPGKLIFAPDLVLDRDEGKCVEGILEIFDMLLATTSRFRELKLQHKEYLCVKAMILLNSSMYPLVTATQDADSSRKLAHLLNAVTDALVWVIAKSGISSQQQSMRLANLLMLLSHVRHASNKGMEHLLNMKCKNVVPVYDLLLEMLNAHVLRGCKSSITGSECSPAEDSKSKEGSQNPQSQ

Paired box protein Pax-8 = Paired box protein Pax-8 (Homo sapiens, UniProt Q06710); test: inhibitors of PAX8-driven TPO luciferase reporter, dose response, RMG-I cells, cherry-pick (AID 687027); type: functional, cell-based;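 note: luciferase reporter driven by Pax8 target thyroperoxidase promoter measured by SteadyGlo luminescence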
Chain of Paired box protein Pax-8 (Q06710 whole entry): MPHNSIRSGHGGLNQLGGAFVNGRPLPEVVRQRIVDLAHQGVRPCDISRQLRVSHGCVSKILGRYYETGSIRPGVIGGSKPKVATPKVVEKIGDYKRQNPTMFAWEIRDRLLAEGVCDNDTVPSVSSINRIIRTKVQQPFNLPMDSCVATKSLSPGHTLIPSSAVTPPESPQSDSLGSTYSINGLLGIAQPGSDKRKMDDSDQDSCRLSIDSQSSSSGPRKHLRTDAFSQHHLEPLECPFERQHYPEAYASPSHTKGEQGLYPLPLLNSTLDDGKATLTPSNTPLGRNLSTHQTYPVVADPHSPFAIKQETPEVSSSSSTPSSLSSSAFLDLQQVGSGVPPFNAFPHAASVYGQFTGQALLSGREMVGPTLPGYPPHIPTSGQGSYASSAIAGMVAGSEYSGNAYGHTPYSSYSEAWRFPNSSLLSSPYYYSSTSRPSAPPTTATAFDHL

[8] = cytotoxicity toward NIH3T3 fibroblasts, dose response, counter-screen, cell-based, ATP luminescence, mouse fibroblasts (AID 2010); type: functional;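 note: cells exposed to compound for about 90 hours before reading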
[9] = inhibitors of intracellular T. cruzi replication, confirmation, NIH3T3 host cells, beta-gal luminescence (AID 2044); type: functional, cell-based;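 note: intracellular parasites grown in NIH/3T3 mouse fibroblasts as host cells; luminescent beta-galactosidase reporter signal from transgenic T. cruzi replicating inside host cells; inhibitors lower the luminescence signal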
Vero = test: cells; type: functional, cell-based; settings: Chlorocebus sabaeus

O=C(O)COc1ccc(/C=C/c2ccc3cccc([N+](=O)[O-])c3n2)cc1
IC50 (Leucine aminopeptidase): 23.2 µM (active) | AC50 [1]: 6.6 µM (active)

COc1ccc(C2=NN(c3ccccc3)C(c3ccc(OC)c(OC)c3)C2)cc1 (centres undefined)
AC50 (HeLa): 52 µM (active)

CC(Oc1ccc2ccc(=O)oc2c1)C(=O)NCCN1CCOCC1 (centres undefined)
EC50 (cells [2]): > 350 µM (not active) | EC50 (cells [3]): > 350 µM (not active)

COc1ccc(C(=O)NNC2=C(C(=O)C(F)(F)F)CCC2)cc1
CC50 [4]: > 20 µM (active) | CC50 [5]: 18.1 µM (active)

O=c1c2c(O)cc(O)cc2oc2ccc(O)c(O[C@@H]3O[C@H](CO)[C@@H](O)[C@H](O)[C@H]3O[C@H]3O[C@H](CO)[C@@H](O)[C@H](O)[C@H]3O)c12
AC50 [1]: 3.69 µM (active)

Cc1ccc2[nH]c(-c3cccc(N)c3)nc2c1
EC50 (HT-1080): 20.6 µM (active) | EC50 [6]: 0.49 µM (active) | AC50 [7]: 0.838 µM (active)

CC(C)(C)c1cc(NC(=O)Nc2ccccc2)no1
AC50 (HeLa): > 350 µM (inactive) | EC50 (H4): > 120 µM (not active)

O=C1C2C3C=CC(C3)C2C(=O)N1c1cccc2cccnc12 (centres undefined)
IC50 (Estrogen receptor beta): 21.4 µM (active)

CC[n+]1c(S(=O)(=O)[O-])ccc2ccc(C)cc21
EC50 (cells [2]): > 350 µM (not active) | EC50 (cells [3]): > 350 µM (not active)

CCOC(=O)Nc1ccc2c(c1)N(C(=O)CCCl)c1ccccc1[S@]2=O
AC50 (Paired box protein Pax-8): 4.57 µM (active) | CC50 [4]: 18.9 µM (active) | CC50 [5]: 24.7 µM (active)

N#C/C(=C/c1ccc(O)c([N+](=O)[O-])c1)C(=O)Nc1ccccc1
AC50 [1]: 1.11 µM (active)

Cc1ccc(NCC(=O)c2ccc(C)cc2)cc1
AC50 (HeLa): 103 µM (active) | EC50 [8]: > 60 µM (not active) | EC50 [9]: 4.53 µM (active)

CCN(CC)CCCNC(=O)c1ccc2c(Cl)c3c(nc2c1)CCCC3
IC50 (Vero): 22.6 µM (active)
